Test results as given in patent US5134125A, “Nutrient composition” (Kyowa Hakko Kogyo Co., Ltd., priority 1989, dated 1992).
Where a SMILES comes first, the peptide text is derived from it.

Experiments:
[1] = Hydrolysis of dipeptides in mouse plasma; type: in vitro ADME, C3H/He mice; conditions: 3.13 mM, 37° C.; for Residual Rate: mean of five mice
Description: Each of the dipeptides shown in Table 2 below was added to 0.05 ml of plasma collected and prepared from C3H/He mice (6 weeks of age, male, weighing 20 g) to give a concentration of 3.13 mM, followed by reaction at 37° C. for 2, 5, 10 and 20 minutes. Five mice were used for each test group, and the results are shown by the mean value.

[2] = Change in concentration in blood of dipeptides administered to mice; type: in vivo, C3H/He mice; conditions: tail vein, 250 μmoles/kg body weight, FIG. 1
Source text: γ-L-Glutamyl-L-glutamine and L-alanyl-L-glutamine were respectively administered to C3H/He mice (6 weeks of age, male, weighing 20 g) through the tail vein at a dose of 250 μmoles/kg body weight, and blood was collected intermittently. Five mice were used for each test group, and the results are shown by the mean ±SEM.

[3] = Influence of administered dipeptides on renal glutamine level; type: in vivo, C3H/He mice; conditions: mice, tail vein; for Concentration of Glutamine in kidney: 250 γmoles/kg body weight, kidneys excised after 20 minutes, mean ±SEM, five mice
Description: γ-L-Glutamine-L-glutamine and L-alany-L-glutamine were respectively administered to C3H/He mice (6 weeks of age, male, weighing 20 g) through the tail vein at a dose of 250 γmoles/kg body weight, and after 20 minutes, the kidneys were excised. The glutamine level in the organ was compared to that prior to the administration of the dipeptides. Five mice were used for each test group, and the results are shown by the mean ±SEM.

[4] = Hydrolysis of dipeptides in human plasma; type: in vitro ADME; conditions: 37° C., 30 minutes; for Residual Rate: 10 mM dipeptide
Description: Each of the dipeptides shown in Table 1 below was added to 0.75 ml of plasma collected and prepared from human to give a concentration of 10 mM, followed by reaction at 37° C. for 30 minutes.

[5] = Stability in solution under sterilizing conditions; type: physicochemical; conditions: solution 10 mM, pH 6.5, 110° C. for 60 minutes
[6] = Storage stability test at 40° C. for 30 days; type: physicochemical; conditions: in solution
[7] = Stability in nutrient preparations under heat sterilization; type: physicochemical
[8] = test system: γ-glutamyl cyclotransferase; conditions: J. Biol. Chem., vol. 253, No. 6, p. 1799-1806 (1978); cited from earlier work
[9] = test system: γ-glutamyl transferase; conditions: J. Biol. Chem., vol. 253, No. 6, p. 1799-1806 (1978); cited from earlier work
[10] = molecular target: T1, γ-GTP (γ-glutamyl transferase) (Sus scrofa, UniProt P20735); experiment: Hydrolysis of dipeptides by γ-GTP; type: biochemical; conditions: 5 mM dipeptide, Tris-HCl buffer 50 mM pH 7.0, γ-GTP from swine kidney, 37° C., 120 minutes
T1 construct: γ-GTP prepared from swine kidney was added to the solution; from tissue; host or cells: swine kidney
T1 sequence (P20735 380-568 limits assumed): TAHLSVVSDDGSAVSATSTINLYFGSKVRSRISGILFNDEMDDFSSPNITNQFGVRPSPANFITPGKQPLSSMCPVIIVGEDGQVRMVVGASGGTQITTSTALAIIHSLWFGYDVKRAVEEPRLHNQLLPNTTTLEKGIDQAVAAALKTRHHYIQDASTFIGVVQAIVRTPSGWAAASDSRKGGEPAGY
T1 sequence (P20735 1-379 limits assumed): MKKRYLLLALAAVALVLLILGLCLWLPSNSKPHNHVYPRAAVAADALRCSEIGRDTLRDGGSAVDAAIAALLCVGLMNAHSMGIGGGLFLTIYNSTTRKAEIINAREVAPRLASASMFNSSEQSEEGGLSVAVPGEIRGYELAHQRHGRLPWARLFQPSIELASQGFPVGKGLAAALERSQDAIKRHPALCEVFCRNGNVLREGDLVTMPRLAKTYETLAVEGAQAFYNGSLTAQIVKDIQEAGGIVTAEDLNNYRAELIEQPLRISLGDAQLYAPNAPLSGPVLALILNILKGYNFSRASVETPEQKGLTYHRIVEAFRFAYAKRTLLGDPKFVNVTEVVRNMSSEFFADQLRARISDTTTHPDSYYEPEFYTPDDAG

| Structure (SMILES) | Residual Rate ([1]; 2 minutes) [%] | Residual Rate ([1]; 5 minutes) [%] | Residual Rate ([1]; 10 minutes) [%] | Residual Rate ([1]; 20 minutes) [%] | Appearance (release) of glutamine in blood [2] | Disappearance of the dipeptide from blood [2] | Concentration of Glutamine in kidney [3] [μmole/g wet weight] | Residual Rate [4] [%] | Decomposition under sterilizing conditions [5] | Residual Rate after Sterilization [5] [%] | Decomposition in storage stability test [6] | Residual Rate after Storage at 40° C. for 30 days [6] [%] | further results |
| --- | --- | --- | --- | --- | --- | --- | --- | --- | --- | --- | --- | --- | --- |
| C[C@H](N)C(=O)N[C@@H](CCC(N)=O)C(=O)O [L-Alanyl-L-glutamine, reference compound] (H-Ala-Gln-OH) | 87 | 62 | 24 | 11 | rapid release of glutamine into the blood | disappeared extremely rapidly | 1.14 ± 0.09 | 74 |  |  |  |  |  |
| NC(=O)CC[C@H](N)C(=O)O [L-Glutamine, reference compound] |  |  |  |  |  |  |  |  | 60% | 40 | 29% | 71 |  |
| NCC(=O)N[C@@H](CCC(N)=O)C(=O)O [Glycyl-L-glutamine] (H-Gly-Gln-OH) |  |  |  |  |  |  |  | 84 |  |  |  |  |  |
| NC(=O)CC[C@H](NC(=O)[C@@H](N)CC(=O)O)C(=O)O [L-Aspartyl-L-glutamine] (H-Asp-Gln-OH) |  |  |  |  |  |  |  | 58 |  |  |  |  |  |
| NC(=O)CC[C@H](NC(=O)CC[C@H](N)C(=O)O)C(=O)O [γ-L-Glutamyl-L-glutamine] | 100 | 100 | 100 | 100 | slow | slow | 1.57 ± 0.12 | 99 | not decomposed at all | 100 | not decomposed at all | 100 | Hydrolysis in mouse plasma ([1]; up to 20 minutes): not hydrolyzed at all; Stability under the sterilizing conditions ([7]; Example 2 jelly-like nutrient preparation, heated at 100° C. for 30 minutes): remained stable; Stability under the sterilizing conditions ([7]; Example 3 composition for oral nutrient supplementation, 110° C. for 60 minutes): remained stable; Substrate for γ-glutamyl cyclotransferase [8]: effective substrate; Substrate for γ-glutamyl transferase [9]: effective substrate; Hydrolysis by γ-GTP [10]: almost completely hydrolyzed; Renal glutamine level ([3]; 20 minutes after administration, compared to prior to administration): significantly high renal glutamine level; Hydrolysis in human plasma ([4]; 10 mM): substantially free of hydrolysis |
